Measurements as given in ChEMBL document CHEMBL5126508, “Therapeutic potential of quinazoline derivatives for Alzheimer's disease: A comprehensive review” (Eur J Med Chem, 2022).
One block for each compound: values may come before it.

What was measured:
[1] = biological target: T1, Cholinesterase (Homo sapiens, UniProt P06276); assay: Inhibition of BuChE (unknown origin)
[2] = biological target: T2, Acetylcholinesterase (Homo sapiens, UniProt P22303); assay: Inhibition of AChE (unknown origin) incubated for 20 mins by TLC analysis
[3] = biological target: Phosphodiesterase 4 (Homo sapiens, UniProt P27815+Q08499+Q07343+Q08493); assay: Inhibition of PDE4 (unknown origin); type: protein assay
[4] = biological target: 3',5'-cyclic-AMP phosphodiesterase 4D (Homo sapiens, UniProt Q08499); assay: Inhibition of PDE4D2 (unknown origin)
[5] = biological target: T2, Acetylcholinesterase; assay: Inhibition of AChE (unknown origin)
[6] = biological target: T3, Amine oxidase [flavin-containing] A (Homo sapiens, UniProt P21397); assay: Inhibition of MAO-A (unknown origin)
T3 sequence (P21397 whole entry): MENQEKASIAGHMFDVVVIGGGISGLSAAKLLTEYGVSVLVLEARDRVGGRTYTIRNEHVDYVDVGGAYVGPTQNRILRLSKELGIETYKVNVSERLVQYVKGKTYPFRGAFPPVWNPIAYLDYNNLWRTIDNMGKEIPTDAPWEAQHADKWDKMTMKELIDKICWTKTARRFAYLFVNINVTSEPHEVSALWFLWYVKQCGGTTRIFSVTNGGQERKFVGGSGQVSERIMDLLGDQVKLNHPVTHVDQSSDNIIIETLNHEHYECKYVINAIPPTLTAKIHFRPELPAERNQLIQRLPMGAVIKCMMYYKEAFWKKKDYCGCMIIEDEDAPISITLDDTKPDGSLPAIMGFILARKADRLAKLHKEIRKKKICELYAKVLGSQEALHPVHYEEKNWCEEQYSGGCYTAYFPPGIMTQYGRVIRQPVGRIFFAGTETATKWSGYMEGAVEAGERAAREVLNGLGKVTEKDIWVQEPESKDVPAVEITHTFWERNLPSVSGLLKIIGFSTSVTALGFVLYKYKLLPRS

[7] = biological target: T4, Amine oxidase [flavin-containing] B (Homo sapiens, UniProt P27338); assay: Inhibition of MAO-B (unknown origin)
T4 sequence (P27338 whole entry): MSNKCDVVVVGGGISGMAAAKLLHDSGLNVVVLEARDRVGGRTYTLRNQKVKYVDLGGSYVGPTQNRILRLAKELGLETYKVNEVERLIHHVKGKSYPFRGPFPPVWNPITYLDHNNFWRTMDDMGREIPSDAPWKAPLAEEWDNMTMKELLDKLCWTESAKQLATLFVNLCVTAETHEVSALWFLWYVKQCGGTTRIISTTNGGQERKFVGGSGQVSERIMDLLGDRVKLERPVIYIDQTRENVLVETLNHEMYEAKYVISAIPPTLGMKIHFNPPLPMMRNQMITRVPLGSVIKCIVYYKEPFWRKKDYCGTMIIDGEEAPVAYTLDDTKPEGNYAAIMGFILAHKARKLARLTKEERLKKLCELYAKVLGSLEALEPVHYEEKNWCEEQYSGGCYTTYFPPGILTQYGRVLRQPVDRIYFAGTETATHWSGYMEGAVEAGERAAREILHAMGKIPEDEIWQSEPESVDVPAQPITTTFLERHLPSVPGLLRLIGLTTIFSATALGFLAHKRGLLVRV

[8] = Inhibition of PDE7 (unknown origin); parameters: species or system Homo sapiens
[9] = Antioxidant activity assessed as radical scavenging at 100 ug/ml by DPPH assay relative to control; type: functional
[10] = biological target: T2, Acetylcholinesterase; assay: Inhibition of human AChE
[11] = biological target: T5, Cholinesterase (Equus caballus, UniProt P81908); assay: Inhibition of equine serum BuChE
[12] = Ratio of IC50 for equine BuChE to IC50 for electric eel AChE
[13] = biological target: T6, Acetylcholinesterase (Electrophorus electricus, UniProt O42275); assay: Inhibition of electric eel AChE
[14] = biological target: T5, Cholinesterase; assay: Inhibition of equine serum BuChE incubated measured after 25 mins by spectrophotometric analysis; type: cell-free
[15] = Ratio of IC50 for electric eel AChE to ratio of IC50 for equine BuChE
[16] = biological target: T6, Acetylcholinesterase; assay: Inhibition of electric eel AChE incubated measured after 25 mins by spectrophotometric analysis
[17] = biological target: Cyclin-dependent kinase 5 (Homo sapiens, UniProt Q00535); assay: Inhibition of CDK5 (unknown origin)
[18] = biological target: Glycogen synthase kinase-3 (Homo sapiens, UniProt P49840+P49841); assay: Inhibition of GSK3alpha/beta (unknown origin); type: protein assay
[19] = biological target: Cyclin-dependent kinase 1 (Homo sapiens, UniProt P06493); assay: Inhibition of CDK1 (unknown origin)
[20] = biological target: T7, Amyloid-beta precursor protein (Homo sapiens, UniProt P05067); assay: Inhibition of amyloid beta 1 to 40 aggregation in human SH-SY5Y cells; type: cell-based
[21] = biological target: T7, Amyloid-beta precursor protein; assay: Inhibition of amyloid beta 1 to 42 aggregation in human SH-SY5Y cells; type: cell-based
[22] = Inhibition of Kainate receptor (unknown origin); parameters: species or system Homo sapiens
[23] = biological target: T8, Beta-secretase 1 (Homo sapiens, UniProt P56817); assay: Inhibition of recombinant human BACE1 in human SH-SY5Y cells using fluorogenic 7-methoxycoumarin-4-yl)acetyl-Ser-Glu-Val-Asn-Leu-Asp-Ala-Glu-Phe-ArgLys(2, 4-dinitrophenyl)-Arg-Arg-NH2 as substrate measured every 5 mins for 120 mins by WCA; type: cell-based
[24] = biological target: T8, Beta-secretase 1; assay: Inhibition of recombinant human BACE1 using fluorogenic 7-methoxycoumarin-4-yl)acetyl-Ser-Glu-Val-Asn-Leu-Asp-Ala-Glu-Phe-ArgLys(2, 4-dinitrophenyl)-Arg-Arg-NH2 as substrate measured every 5 mins for 120 mins by CFA
[25] = tested on: SH-SY5Y; assay: Cytotoxicity against human SH-SY5Y cells; type: functional, cell-based
[26] = tested on: SH-SY5Y; assay: Cytotoxicity against human SH-SY5Y cells assessed as cell viability at 100 uM relative to control; type: functional; conditions: read-out: Activity
[27] = biological target: T6, Acetylcholinesterase; assay: Inhibition of electric eel AChE using acetylthiocholine incubated for 30 mins by measuring hydrolysis of substrate by Ellman's method
[28] = biological target: T7, Amyloid-beta precursor protein; assay: Inhibition of amyloid beta 1 to 42 (unknown origin) […]
[29] = biological target: T1, Cholinesterase; assay: Inhibition of BuChE (unknown origin) by Ellman's method
[30] = biological target: T2, Acetylcholinesterase; assay: Inhibition of AChE (unknown origin) by Ellman's method
[31] = biological target: Cyclin-dependent kinase 3 (Homo sapiens, UniProt Q00526); assay: Inhibition of CDK3 (unknown origin)
[32] = biological target: Cyclin-dependent kinase 4 (Homo sapiens, UniProt P11802); assay: Inhibition of CDK4 (unknown origin)
[33] = biological target: Cyclin-dependent kinase 2 (Homo sapiens, UniProt P24941); assay: Inhibition of CDK2 (unknown origin)

T7 sequence (P05067 whole entry): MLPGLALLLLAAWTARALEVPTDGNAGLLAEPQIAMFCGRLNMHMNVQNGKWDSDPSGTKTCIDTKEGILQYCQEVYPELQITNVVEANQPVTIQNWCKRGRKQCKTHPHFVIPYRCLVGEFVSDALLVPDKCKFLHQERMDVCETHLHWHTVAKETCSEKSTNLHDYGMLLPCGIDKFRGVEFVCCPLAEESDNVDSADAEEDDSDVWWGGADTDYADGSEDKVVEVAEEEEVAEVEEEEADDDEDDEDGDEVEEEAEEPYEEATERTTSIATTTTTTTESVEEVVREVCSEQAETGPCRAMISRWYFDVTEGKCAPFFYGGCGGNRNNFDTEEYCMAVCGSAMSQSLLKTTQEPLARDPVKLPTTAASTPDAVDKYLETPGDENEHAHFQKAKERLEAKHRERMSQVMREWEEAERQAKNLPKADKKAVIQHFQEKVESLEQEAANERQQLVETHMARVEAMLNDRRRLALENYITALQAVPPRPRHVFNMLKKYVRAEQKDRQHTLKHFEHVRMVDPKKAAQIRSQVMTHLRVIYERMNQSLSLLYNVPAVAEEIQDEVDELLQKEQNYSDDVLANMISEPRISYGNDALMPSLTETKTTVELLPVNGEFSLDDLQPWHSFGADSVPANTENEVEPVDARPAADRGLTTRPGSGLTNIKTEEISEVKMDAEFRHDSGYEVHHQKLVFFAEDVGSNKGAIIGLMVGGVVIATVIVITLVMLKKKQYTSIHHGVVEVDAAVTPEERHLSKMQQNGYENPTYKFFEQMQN
T5 sequence (P81908 whole entry): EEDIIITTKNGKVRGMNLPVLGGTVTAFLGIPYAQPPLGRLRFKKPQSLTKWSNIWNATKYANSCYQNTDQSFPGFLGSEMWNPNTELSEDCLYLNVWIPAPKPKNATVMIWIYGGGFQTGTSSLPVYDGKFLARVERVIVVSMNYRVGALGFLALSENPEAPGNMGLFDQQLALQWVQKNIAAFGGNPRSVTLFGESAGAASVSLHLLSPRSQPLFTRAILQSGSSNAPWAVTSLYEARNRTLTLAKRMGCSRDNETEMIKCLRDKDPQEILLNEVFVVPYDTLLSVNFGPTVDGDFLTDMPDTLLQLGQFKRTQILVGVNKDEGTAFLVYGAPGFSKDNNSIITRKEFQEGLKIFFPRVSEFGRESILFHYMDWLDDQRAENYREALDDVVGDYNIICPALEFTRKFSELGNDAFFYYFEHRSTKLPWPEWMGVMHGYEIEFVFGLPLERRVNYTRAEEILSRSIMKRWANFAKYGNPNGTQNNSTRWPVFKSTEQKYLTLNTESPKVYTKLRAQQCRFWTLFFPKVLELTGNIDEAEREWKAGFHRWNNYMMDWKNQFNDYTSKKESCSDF
T6 sequence (O42275 whole entry): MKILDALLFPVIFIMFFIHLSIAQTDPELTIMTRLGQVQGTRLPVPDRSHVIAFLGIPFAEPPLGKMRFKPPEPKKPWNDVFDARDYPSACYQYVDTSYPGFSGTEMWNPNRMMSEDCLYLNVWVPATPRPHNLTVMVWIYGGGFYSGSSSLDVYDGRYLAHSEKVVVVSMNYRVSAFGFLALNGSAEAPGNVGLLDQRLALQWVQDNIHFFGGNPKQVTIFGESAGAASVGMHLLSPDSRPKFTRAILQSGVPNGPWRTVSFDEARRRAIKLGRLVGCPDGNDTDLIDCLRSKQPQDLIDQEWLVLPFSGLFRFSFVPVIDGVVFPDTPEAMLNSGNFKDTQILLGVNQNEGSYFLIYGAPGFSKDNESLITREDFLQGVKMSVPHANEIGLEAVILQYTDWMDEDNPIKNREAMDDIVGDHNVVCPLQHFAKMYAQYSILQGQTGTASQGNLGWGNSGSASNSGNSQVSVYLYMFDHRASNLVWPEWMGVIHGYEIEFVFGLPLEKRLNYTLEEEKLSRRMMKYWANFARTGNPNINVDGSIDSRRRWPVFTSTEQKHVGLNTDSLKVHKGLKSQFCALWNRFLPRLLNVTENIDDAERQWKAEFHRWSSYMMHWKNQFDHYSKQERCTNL
T1 sequence (P06276 whole entry): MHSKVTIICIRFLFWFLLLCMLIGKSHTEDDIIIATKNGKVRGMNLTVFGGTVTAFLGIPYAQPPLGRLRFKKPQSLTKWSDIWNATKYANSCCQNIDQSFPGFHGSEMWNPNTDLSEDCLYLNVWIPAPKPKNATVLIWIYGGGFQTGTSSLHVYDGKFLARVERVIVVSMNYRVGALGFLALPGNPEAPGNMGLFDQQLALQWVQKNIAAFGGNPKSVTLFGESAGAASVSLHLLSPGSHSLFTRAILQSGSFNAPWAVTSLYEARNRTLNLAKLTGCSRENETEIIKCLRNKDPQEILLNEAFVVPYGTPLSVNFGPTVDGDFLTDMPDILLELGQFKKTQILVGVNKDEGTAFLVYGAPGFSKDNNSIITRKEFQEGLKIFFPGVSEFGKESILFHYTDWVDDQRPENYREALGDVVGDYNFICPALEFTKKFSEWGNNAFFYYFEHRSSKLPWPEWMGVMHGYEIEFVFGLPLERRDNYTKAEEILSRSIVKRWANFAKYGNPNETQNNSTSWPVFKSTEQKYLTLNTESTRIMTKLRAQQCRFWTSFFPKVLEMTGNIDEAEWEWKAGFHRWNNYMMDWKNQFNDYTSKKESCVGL
T2 sequence (P22303 whole entry): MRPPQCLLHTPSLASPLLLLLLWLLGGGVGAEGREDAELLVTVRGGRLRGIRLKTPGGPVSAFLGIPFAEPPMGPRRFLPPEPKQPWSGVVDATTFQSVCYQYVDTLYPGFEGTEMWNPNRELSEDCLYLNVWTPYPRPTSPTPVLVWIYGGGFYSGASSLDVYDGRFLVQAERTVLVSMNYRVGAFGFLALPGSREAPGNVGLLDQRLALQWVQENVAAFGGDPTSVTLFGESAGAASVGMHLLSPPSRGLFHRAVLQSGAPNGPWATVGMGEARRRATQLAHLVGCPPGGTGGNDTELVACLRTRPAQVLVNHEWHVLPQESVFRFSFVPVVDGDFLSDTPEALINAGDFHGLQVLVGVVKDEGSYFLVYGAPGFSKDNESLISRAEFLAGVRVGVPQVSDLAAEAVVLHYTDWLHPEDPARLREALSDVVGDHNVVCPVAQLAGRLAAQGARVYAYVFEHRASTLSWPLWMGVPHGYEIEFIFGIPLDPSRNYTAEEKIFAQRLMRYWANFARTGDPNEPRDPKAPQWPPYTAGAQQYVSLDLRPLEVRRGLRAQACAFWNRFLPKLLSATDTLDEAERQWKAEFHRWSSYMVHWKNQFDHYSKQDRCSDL
T8 sequence (P56817 whole entry): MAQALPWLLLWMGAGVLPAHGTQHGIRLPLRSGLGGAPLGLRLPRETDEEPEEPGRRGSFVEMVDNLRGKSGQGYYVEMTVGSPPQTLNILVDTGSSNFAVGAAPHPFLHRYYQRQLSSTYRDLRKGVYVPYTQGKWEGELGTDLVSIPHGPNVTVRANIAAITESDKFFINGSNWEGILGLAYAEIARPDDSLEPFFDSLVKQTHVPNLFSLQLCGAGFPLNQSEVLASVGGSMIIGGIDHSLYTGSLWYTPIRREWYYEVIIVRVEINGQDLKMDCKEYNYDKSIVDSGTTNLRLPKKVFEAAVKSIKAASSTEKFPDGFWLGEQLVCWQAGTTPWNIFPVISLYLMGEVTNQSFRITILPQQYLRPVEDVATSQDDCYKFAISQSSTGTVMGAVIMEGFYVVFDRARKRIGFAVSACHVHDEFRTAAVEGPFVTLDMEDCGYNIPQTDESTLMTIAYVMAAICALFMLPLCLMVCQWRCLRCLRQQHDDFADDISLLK
Sequence of Cyclin-dependent kinase 1 (P06493 whole entry): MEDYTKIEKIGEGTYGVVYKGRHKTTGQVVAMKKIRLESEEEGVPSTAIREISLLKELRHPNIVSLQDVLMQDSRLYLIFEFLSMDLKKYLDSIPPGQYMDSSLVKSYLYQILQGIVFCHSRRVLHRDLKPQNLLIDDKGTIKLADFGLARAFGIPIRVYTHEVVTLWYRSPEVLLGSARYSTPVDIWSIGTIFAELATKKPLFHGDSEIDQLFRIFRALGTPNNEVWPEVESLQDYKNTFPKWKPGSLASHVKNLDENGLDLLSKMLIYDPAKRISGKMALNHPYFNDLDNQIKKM
Sequence of 3',5'-cyclic-AMP phosphodiesterase 4D (Q08499 whole entry): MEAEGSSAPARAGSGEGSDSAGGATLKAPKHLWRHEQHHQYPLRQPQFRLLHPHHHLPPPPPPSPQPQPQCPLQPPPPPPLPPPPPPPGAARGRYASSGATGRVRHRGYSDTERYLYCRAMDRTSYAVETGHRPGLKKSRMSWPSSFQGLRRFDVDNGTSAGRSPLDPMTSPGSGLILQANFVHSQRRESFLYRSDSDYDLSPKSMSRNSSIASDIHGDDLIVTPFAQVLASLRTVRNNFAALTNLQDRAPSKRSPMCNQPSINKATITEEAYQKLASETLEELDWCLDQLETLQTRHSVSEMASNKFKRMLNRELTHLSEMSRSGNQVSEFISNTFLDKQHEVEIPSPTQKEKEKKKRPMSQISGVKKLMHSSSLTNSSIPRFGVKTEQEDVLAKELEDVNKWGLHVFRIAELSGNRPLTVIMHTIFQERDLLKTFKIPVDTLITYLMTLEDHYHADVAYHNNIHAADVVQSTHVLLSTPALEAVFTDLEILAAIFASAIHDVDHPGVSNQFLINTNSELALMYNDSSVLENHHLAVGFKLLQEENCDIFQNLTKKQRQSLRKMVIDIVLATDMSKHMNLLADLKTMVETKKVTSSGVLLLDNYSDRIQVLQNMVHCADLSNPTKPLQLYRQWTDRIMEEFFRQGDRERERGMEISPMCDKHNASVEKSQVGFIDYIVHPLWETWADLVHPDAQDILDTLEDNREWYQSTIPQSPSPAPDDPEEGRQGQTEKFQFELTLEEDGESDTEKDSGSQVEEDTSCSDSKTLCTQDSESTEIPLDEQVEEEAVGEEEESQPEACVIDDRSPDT

Structure (SMILES): O=c1c2ccccc2nc2n1CC[C@@H]2[C@@H]1CCCN1
IC50 [1]: > 500 µM
IC50 [2]: 5.71 µM

Structure (SMILES): CSc1nc2ccccc2c(=O)n1-c1c(F)cccc1F
IC50 [3]: 3.5 µM
IC50 [4]: 3.5 µM

Structure (SMILES): O=c1c2ccccc2nc2n1C(c1cncc3[nH]c4ccccc4c13)CC2O (centres undefined)
IC50 [1]: 18.2 µM
IC50 [5]: 70.5 µM

Structure (SMILES): O=C(O)C1=Nc2ccccc2CN1
IC50 [1]: > 1000 µM
IC50 [5]: 345 µM

IC50 [6]: 0.0021 µM
IC50 [7]: 83 µM
Structure (SMILES): NNC(=O)CN1C(=O)c2ccccc2NC1c1ccc2c(c1)OCO2 (centres undefined)

Structure (SMILES): O=c1c2cccc(Cl)c2[nH]c(=S)n1-c1ccccc1Br
IC50 [8]: 1.8 µM

Structure (SMILES): CSc1nc2nc(N/N=C/c3cccnc3)c3ccccc3n2n1
inhibition [9]: 62%

Structure (SMILES): c1ccc2c(c1)CCCN1Cc3cc(OCCCN4CCCCC4)ccc3N=C21
IC50 [10]: 0.535 µM
IC50 [11]: 2.67 µM
Ratio IC50 [12]: 47
IC50 [13]: 0.0571 µM

Structure (SMILES): c1cc2c(cc1OCCCN1CCCCC1)CN1CCCC1=N2
IC50 [10]: 1.1 µM
IC50 [11]: 0.122 µM
Ratio IC50 [12]: 1.76
IC50 [13]: 0.0692 µM

Structure (SMILES): c1ccc2c(c1)CCN1Cc3cc(OCCCN4CCCCC4)ccc3N=C21
IC50 [10]: 0.216 µM
IC50 [11]: 0.955 µM
Ratio IC50 [12]: 174
IC50 [13]: 0.0055 µM

Structure (SMILES): CC1(c2ccc(Cl)cc2)NC(=O)c2cc(Br)cc(Br)c2N1 (centres undefined)
IC50 [14]: 3.7 µM
Ratio IC50 [15]: 2.3
IC50 [16]: 1.6 µM

IC50 [17]: > 10 µM
IC50 [18]: 0.66 µM
IC50 [19]: > 10 µM
Structure (SMILES): COC(=N)c1nc2ccc3ncnc(Nc4ccc5c(c4)OCO5)c3c2s1

Structure (SMILES): O=c1c2ccccc2nc2n1CCC2 [DEOXYVASICINONE]
IC50 [1]: 17.8 µM
IC50 [5]: 35.2 µM

IC50 [20]: > 10 µM
IC50 [21]: 0.66 µM
Structure (SMILES): COc1cc(/C=C/c2nc3cc(Cl)ccc3c(=O)[nH]2)ccc1-n1cnc(C)c1

IC50 [22]: 5.1 µM
Structure (SMILES): O=Cc1ccn(-c2cc3c(cc2Cl)nc(O)n2nc(C(=O)O)cc32)c1

Structure (SMILES): O=C(CCN1CCCCC1)Nc1ccc2nc(-c3cc4ccccc4[nH]3)[nH]c(=O)c2c1
IC50 [1]: 7.32 µM

IC50 [23]: 0.14 µM
IC50 [24]: 0.49 µM
Structure (SMILES): Cn1cc(CN(C(=O)CCCN2C(N)=Nc3ccc(Oc4ccccc4)cc3C2CC2CCCCC2)C2CCCCC2)cn1 (centres undefined)
IC50 [25]: 11.8 µM

Structure (SMILES): O=C(NCCc1ccc(O)cc1)C1CCC2=Nc3ccc(Br)cc3CN21 (centres undefined)
viability at 100 µM [26]: 78.6%

Structure (SMILES): CN1C(=O)C2(Nc3cc(Cl)ccc3-c3ccnn32)c2cc(Cl)ccc21 (centres undefined)
IC50 [1]: 219 µM
IC50 [27]: 88.2 µM

Structure (SMILES): COc1cc2c(Nc3ccc(C(=O)/C=C/c4nc(C)c(C)nc4C)cc3)ncnc2c(OC)c1OC
IC50 [6]: 47.4 µM
IC50 [28]: 26.7 µM
IC50 [29]: 22.4 µM
IC50 [30]: 0.1 µM

IC50 [31]: > 10 µM
IC50 [32]: 0.059 µM
IC50 [19]: 0.0228 µM
IC50 [33]: 0.0888 µM
Structure (SMILES): COC(=N)c1nc2ccc3ncnc(Nc4ccc(Cl)cc4Cl)c3c2s1

Structure (SMILES): O=c1c2ccccc2nc2n1CCC2O (centres undefined)
IC50 [1]: 10.2 µM
IC50 [5]: 76.6 µM

IC50 [6]: 468 µM
IC50 [7]: 1.15 µM
Structure (SMILES): Cn1c(N/N=C(\C=C\c2cccc(Cl)c2)c2ccccc2)nc2ccccc2c1=O
